Experimental data taken from paper PMC10094921, “A Lipidated Single-B-Chain Derivative of Relaxin Exhibits Improved In Vitro Serum Stability without Altering Activity” (International Journal of Molecular Sciences, 2023).
No end group written: not given here.

Experiments:
[1] = molecular target: T1, 7BP protein (RXFP1 extracellular domain attached with a single TM domain) (Homo sapiens, UniProt Q9HBX9); experiment: Eu-H2 relaxin competition binding in HEK-7BP cells, BSA free; conditions: HEK-293T cells stably expressing 7BP, BSA excluded from buffer, mean ± SEM, n in brackets, one-site fit, read-out: HEK-7BP Binding B.S.A. Free Eu-H2 pKi (n) (converted)
T1 construct: RXFP1 extracellular domain attached with a single TM domain instead of the native 7 TM domain; single transmembrane domain replacing the native 7 TM domain (heterologous); expressed in transfected cells; host or cells: HEK-293T cells stably expressing 7BP (HEK-7BP)
T1 sequence (Q9HBX9 1-409 limits assumed): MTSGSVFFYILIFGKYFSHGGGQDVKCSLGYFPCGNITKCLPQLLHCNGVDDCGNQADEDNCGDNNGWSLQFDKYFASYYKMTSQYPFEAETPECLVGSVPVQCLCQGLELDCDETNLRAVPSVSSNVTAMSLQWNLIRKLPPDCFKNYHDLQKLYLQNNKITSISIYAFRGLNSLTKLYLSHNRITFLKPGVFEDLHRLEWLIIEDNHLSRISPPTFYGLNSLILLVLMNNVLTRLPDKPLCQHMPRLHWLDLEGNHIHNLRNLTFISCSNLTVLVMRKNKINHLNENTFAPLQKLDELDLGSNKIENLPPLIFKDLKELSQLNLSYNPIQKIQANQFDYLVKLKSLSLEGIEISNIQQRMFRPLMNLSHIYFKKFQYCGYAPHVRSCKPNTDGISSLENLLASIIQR
Procedure: 3.6. HEK-7BP Binding Assays
HEK-293T cells stably expressing the 7BP protein (HEK-7BP; RXFP1 extracellular domain attached with a single TM domain instead of the native 7 TM domain [30]) were plated in 96-well plates. The medium was aspirated off, and the cells were washed with phosphate-buffered saline (PBS) before competition binding assays were performed with Eu-H2 Relaxin (RXFP1 ligand), as previously described, with the only difference being that BSA was excluded from the binding assay buffer. Competition binding curves for each peptide were performed in triplicate, and each experiment was performed independently at least three times. Fluorescent measurements were carried out on a BMG POLARstar plate reader (BMG Labtech, Melbourne, Australia). Pooled data are presented as mean ± SE of specific binding and are fitted using a one-site binding curve in GraphPad Prism version 8 (GraphPad Inc., San Diego, CA, USA). Statistical analyses were conducted using a one-way analysis of variance with uncorrected Fisher’s least significant difference (LSD) post-hoc analysis in GraphPad Prism version 8.

[2] = system: BJ3 human dermal myofibroblasts; experiment: Myofibroblast differentiation in vitro (α-SMA expression, Western blot); format: cell-based
Procedure: 3.8. Determination of the Effects of Lipidated (L)-B7-33 on Myofibroblast Differentiation In Vitro
To determine if the lipidation of B7-33 prolonged its ability to suppress myofibroblast differentiation in vitro, the effects of the native B7-33 peptide vs. lipidated (L)-B7-33 were compared in BJ3 cells, a human dermal fibroblast cell line. BJ3 fibroblasts were used between passages 15–18 and cultured as described before. […] BJ3 cells were plated in 12-well plates at a density of 1–1.25 × 10^5 cells per well and were then either left untreated or stimulated with transforming growth factor (TGF)-β1 (T; 2 ng/mL) alone (to promote myofibroblast differentiation) or with T + B7-33 (100 ng/mL) or T + L-B7-33 (100 ng/mL) for a 14-day period, in media that was left unchanged over this time period. The cells from duplicate wells per treatment group were isolated from plates at 3-, 5-, 7-, 10- and 14-days post-T ± peptide treatment and extracted for protein using the RIPA lysis buffer (ThermoFisher Scientific; Scoresby, Victoria, Australia). These experiments were performed six independent times.
Half the cell protein (in 10 μL of RIPA buffer) from each sample (that was fully reconstituted in 20 μL of RIPA buffer) was loaded and electrophoresed in separate mini-protean 4–15% precast gels, and analyzed by Western blotting using a primary monoclonal antibody to α-SMA (42 kDa; M0851; […]; Agilent Technologies, Santa Clara, CA, USA). The equivalent loading of protein between samples was confirmed using a rabbit monoclonal glyceraldehyde 3-phosphate dehydrogenase (GAPDH) housekeeping antibody (37 kDa; 2118; 1:1000 dilution; Cell Signaling Technology; Danvers, MA, USA). Each membrane was then subjected to appropriate anti-mouse (7076) or anti-rabbit (7074) horseradish peroxidase-conjugated secondary antibodies (both at a 1:2000 dilution; Cell Signaling Technologies), before proteins were detected using the Clarity Western ECL substrate detection kit and quantified by densitometry with a ChemiDoc MP Imaging System and Image Lab v.6.0 software (both from Bio-Rad Laboratories, Hercules, CA, USA).The density of α-SMA from each sample was corrected for GAPDH protein levels and then expressed relative to the ratio that was measured from the unstimulated control group, which was expressed as 1 in each case. Representative blots of α-SMA and GAPDH were also chosen for presentation in each case.

[3] = In vitro serum stability assay; format: in vitro ADME, human; conditions: 37 °C
Procedure: 3.7. In Vitro Serum Stability Assay
A total of 400 µL of human serum was taken, and 200 µg peptide dissolved in 100 µL of water was added to human serum at 37 °C. A total of 80 µL of samples was removed at various time points (0 min, 30 min, 60 min, 120 min, 240 min, and 480 min), and 160 µL of acetonitrile was added to precipitate plasma proteins. The solution was then centrifuged at 12,000 rpm for 15 min at 4 °C. A total of 200 µL of supernatant was taken out and mixed with 240 µL of milli-Q water, and each sample was analyzed by RP-HPLC (2 × 80 μL injection), by measuring the area under the peak at the appropriate retention time compared to the peak area of the peptide at time zero minute (100%). Data analysis (n = 3, duplicate) was performed using Prism Version 8.0.2, a non-linear-fit one-phase decay model.

[4] = system: cyclic adenosine monophosphate (cAMP); conditions: in fibroblasts; cited from earlier work
From the text: (§1) The human gene-2 relaxin peptide (H2 relaxin) was discovered as a hormone of reproduction. The actions of H2 relaxin during pregnancy are pleiotropic, including strong antifibrotic, angiogenic, vasodilatory, antiapoptotic, and anti-inflammatory effects. These effects are mediated through the activation of the G protein-coupled receptor, Relaxin Family Peptide Receptor 1 (RXFP1), the native receptor for H2 relaxin [5]. However, H2 relaxin also has a high affinity for, and potency on, the related Relaxin Family Peptide Receptor 2 (RXFP2, a cognate receptor for INSL3 [6]) ...

pERK pathway = conditions: in fibroblasts; cited from earlier work
From the text: as §1

[5] = system: heart fibrosis, lung fibrosis; conditions: rat vs. mouse; cited from earlier work
From the text: as §1

[6] = human serum 400 µL + 200 µg peptide in 100 µL water, samples 0-480 min, acetonitrile precipitation, RP-HPLC peak area vs time zero, one-phase decay fit, n = 3, duplicate

Row | Ki [1] | half-life at 400 µg/mL [3, 6] | in vitro half-life in serum [3, 6] | in vitro serum stability, in words ([3]; human serum, RP-HPLC, n = 3 independent experiments) | Compound | α-SMA expression levels versus T-alone-stimulated cells, in words ([2]; peptide 100 ng/mL + T 2 ng/mL, after 5–14 days of culture) | suppression of TGF-α-induced increase in α-SMA expression ([2]; peptide 100 ng/mL co-administered with T (2 ng/mL), after 72 h of culture, 0.5% FCS, n = 6 in duplicate) | cAMP activation [4] | pERK pathway activation potency (pERK pathway) | effect on fibrosis in animal models [5]
1 | > 10 µM | – | – | – | CCCCCCCCCCCCCCCC(=O)NCCCC[C@H](NC(=O)[C@H](CCC(=O)O)NC(=O)[C@H](Cc1ccc(O)cc1)NC(=O)[C@@H](N)CCC(=O)O)C(=O)N[C@@H](CCC(=O)O)C(=O)N[C@@H](Cc1ccc(O)cc1)C(=O)N[C@@H](CCC(=O)O)C(=O)NCCOCCOCCOCCOCCOCCOCCC(=O)N[C@H](C(=O)N[C@H](C(=O)N[C@@H](CCCCN)C(=O)N[C@@H](CC(C)C)C(=O)N[C@@H](CO)C(=O)NCC(=O)N[C@@H](CCCNC(=N)N)C(=O)N[C@@H](CCC(=O)O)C(=O)N[C@@H](CC(C)C)C(=O)N[C@H](C(=O)N[C@@H](CCCNC(=N)N)C(=O)N[C@@H](C)C(=O)N[C@@H](CCC(N)=O)C(=O)N[C@H](C(=O)N[C@@H](C)C(=O)N[C@H](C(=O)N[C@@H](CO)C(=O)NCC(=O)N[C@@H](CCSC)C(=O)N[C@@H](CO)C(=O)N[C@H](C(=O)N[C@@H](Cc1c[nH]c2ccccc12)C(=O)N[C@@H](CO)C(=O)N[C@@H](CCCCN)C(=O)N[C@@H](CCCNC(=N)N)C(=O)N[C@@H](CO)C(=O)N[C@@H](CC(C)C)C(N)=O)[C@@H](C)O)[C@@H](C)CC)[C@@H](C)CC)C(C)C)[C@@H](C)CC)C(C)C [Tag-PEG6-B7-33] | – | – | – | – | –
2 | – | ~6 min | 6 min | degrades within minutes | VIKLSGRELVRAQIAISGMSTWSKRSL-NH2 [Analogue B7-33] | fully returned to those measured for T-alone-stimulated cells | almost fully suppressed | barely activate | potency similar to H2 relaxin | reversed or resolved fibrosis
